Active and inactive are the calls of the source.
How the values were obtained:
Perilipin-1/ABHD5 = Perilipin-1/ABHD5 (Homo sapiens, UniProt O60240+Q8WTS1); test: Luminescence-based biochemical high throughput dose response assay for inhibitors of the interaction of the lipase co-activator protein, abhydrolase domain containing 5 (ABHD5) with perilipin-1 (PLIN1) (2K validation set). [Related pubchem assays (depositor defined):AID493027, AID493057]
[1] = biological target: Heat shock protein HSP 90-alpha (Homo sapiens, UniProt P07900); type: functional, organism-based
[2] = biological target: 1-acylglycerol-3-phosphate O-acyltransferase ABHD5/Perilipin-5 (Homo sapiens, UniProt Q00G26+Q8WTS1); test: Luminescence-based biochemical high throughput dose response assay for inhibitors of the interaction of the lipase co-activator protein, abhydrolase domain containing 5 (ABHD5) with perilipin-5 (MLDP; PLIN5) (2K validation set). [Related pubchem assays (depositor defined):AID493035, AID493241]
[3] = Cytotoxicity screening for potential Inhibitors of Bacterial Capsule Biogenesis. [Related pubchem assays (depositor defined):AID488970]; type: functional
[4] = NIH-3T3 fibroblast cytotoxicity, dose response, cytotoxicity control, cell-based, fluorescence, Alamar Blue, secondary assay (AID 2327); type: functional;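 further: NIH-3T3 mouse fibroblasts cultured with fluconazole at 8 µg/mL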
[5] = biological target: T1, Serine/threonine-protein phosphatase (Candida dubliniensis (strain CD36 / CBS 7987 / NCPF 3949 / NRRLY-17841) (Yeast), UniProt B9W6M3); test: calcineurin pathway inhibitors in yeast reporter, dose response, S. cerevisiae, CDRE-lacZ, luminescence, secondary (AID 2388); type: functional, cell-based;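 further: yeast reporter cells carrying a calcineurin-responsive lacZ construct stimulated with calcium chloride; luminescent beta-galactosidase reporter signal in whole cells rather than isolated phosphatase activity; potency for inhibition where a drop in reporter signal means calcineurin blockade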
T1 sequence (B9W6M3 whole entry): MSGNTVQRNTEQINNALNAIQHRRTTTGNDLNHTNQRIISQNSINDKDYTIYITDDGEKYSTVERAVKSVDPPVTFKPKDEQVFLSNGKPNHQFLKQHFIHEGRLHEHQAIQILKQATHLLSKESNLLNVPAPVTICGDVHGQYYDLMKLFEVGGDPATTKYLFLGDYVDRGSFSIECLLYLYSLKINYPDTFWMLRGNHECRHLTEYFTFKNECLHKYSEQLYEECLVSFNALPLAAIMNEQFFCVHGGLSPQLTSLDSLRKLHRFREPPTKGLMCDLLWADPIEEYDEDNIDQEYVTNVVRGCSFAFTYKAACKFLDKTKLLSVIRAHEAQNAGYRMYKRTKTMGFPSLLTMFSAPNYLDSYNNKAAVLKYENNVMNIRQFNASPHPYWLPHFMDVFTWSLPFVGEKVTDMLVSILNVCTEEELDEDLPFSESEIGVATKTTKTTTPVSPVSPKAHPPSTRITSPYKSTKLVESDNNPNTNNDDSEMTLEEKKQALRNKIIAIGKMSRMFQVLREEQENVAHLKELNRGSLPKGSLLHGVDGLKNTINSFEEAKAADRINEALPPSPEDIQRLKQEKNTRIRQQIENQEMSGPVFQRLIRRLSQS

[6] = C. albicans growth with fluconazole, confirmation, fluorescence, retest (AID 2467); type: functional, cell-based
[7] = biological target: ATP-dependent molecular chaperone HSP82 (Candida albicans (strain WO-1) (Yeast), UniProt C4YTQ8); test: loss of DOC-induced GRE-beta-galactosidase reporter signal, dose response, Hsp90 inhibitor project, S. cerevisiae, luminescence (AID 2400); type: functional, cell-based;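 further: beta-galactosidase luminescence from glucocorticoid response element reporter as proxy for Hsp90 function; inhibitor potency where signal loss means Hsp90 inhibition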
ATP-dependent molecular chaperone HSP82, sequence (C4YTQ8 whole entry): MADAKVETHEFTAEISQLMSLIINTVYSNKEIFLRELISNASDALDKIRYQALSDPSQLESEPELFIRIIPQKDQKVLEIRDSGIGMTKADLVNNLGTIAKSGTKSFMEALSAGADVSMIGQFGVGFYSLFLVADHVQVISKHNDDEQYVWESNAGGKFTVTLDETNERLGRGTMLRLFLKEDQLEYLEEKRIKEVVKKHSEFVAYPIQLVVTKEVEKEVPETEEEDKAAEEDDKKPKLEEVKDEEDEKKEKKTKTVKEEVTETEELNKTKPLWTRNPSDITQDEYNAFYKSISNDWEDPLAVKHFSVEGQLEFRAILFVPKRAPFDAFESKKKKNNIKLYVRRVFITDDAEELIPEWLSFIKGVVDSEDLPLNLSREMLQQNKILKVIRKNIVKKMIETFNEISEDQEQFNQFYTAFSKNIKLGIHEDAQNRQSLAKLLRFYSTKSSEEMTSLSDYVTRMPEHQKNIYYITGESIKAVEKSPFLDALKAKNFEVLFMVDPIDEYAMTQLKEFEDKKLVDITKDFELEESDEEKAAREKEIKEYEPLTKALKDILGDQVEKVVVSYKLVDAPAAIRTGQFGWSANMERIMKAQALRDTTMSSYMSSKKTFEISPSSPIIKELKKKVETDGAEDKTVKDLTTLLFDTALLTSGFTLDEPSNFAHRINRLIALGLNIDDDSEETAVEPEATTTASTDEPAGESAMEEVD

[8] = biological target: T2, Voltage-gated N-type calcium channel alpha-1B subunit/Amyloid beta A4 precursor protein-binding family A member 1 (Homo sapiens, UniProt Q00975+Q02410); test: disruptors of Mint-PDZ/N-type channel peptide interaction – biochemical, HTRF, SAR follow-up (AID 2489); type: functional
T2 sequence (Q00975 whole entry): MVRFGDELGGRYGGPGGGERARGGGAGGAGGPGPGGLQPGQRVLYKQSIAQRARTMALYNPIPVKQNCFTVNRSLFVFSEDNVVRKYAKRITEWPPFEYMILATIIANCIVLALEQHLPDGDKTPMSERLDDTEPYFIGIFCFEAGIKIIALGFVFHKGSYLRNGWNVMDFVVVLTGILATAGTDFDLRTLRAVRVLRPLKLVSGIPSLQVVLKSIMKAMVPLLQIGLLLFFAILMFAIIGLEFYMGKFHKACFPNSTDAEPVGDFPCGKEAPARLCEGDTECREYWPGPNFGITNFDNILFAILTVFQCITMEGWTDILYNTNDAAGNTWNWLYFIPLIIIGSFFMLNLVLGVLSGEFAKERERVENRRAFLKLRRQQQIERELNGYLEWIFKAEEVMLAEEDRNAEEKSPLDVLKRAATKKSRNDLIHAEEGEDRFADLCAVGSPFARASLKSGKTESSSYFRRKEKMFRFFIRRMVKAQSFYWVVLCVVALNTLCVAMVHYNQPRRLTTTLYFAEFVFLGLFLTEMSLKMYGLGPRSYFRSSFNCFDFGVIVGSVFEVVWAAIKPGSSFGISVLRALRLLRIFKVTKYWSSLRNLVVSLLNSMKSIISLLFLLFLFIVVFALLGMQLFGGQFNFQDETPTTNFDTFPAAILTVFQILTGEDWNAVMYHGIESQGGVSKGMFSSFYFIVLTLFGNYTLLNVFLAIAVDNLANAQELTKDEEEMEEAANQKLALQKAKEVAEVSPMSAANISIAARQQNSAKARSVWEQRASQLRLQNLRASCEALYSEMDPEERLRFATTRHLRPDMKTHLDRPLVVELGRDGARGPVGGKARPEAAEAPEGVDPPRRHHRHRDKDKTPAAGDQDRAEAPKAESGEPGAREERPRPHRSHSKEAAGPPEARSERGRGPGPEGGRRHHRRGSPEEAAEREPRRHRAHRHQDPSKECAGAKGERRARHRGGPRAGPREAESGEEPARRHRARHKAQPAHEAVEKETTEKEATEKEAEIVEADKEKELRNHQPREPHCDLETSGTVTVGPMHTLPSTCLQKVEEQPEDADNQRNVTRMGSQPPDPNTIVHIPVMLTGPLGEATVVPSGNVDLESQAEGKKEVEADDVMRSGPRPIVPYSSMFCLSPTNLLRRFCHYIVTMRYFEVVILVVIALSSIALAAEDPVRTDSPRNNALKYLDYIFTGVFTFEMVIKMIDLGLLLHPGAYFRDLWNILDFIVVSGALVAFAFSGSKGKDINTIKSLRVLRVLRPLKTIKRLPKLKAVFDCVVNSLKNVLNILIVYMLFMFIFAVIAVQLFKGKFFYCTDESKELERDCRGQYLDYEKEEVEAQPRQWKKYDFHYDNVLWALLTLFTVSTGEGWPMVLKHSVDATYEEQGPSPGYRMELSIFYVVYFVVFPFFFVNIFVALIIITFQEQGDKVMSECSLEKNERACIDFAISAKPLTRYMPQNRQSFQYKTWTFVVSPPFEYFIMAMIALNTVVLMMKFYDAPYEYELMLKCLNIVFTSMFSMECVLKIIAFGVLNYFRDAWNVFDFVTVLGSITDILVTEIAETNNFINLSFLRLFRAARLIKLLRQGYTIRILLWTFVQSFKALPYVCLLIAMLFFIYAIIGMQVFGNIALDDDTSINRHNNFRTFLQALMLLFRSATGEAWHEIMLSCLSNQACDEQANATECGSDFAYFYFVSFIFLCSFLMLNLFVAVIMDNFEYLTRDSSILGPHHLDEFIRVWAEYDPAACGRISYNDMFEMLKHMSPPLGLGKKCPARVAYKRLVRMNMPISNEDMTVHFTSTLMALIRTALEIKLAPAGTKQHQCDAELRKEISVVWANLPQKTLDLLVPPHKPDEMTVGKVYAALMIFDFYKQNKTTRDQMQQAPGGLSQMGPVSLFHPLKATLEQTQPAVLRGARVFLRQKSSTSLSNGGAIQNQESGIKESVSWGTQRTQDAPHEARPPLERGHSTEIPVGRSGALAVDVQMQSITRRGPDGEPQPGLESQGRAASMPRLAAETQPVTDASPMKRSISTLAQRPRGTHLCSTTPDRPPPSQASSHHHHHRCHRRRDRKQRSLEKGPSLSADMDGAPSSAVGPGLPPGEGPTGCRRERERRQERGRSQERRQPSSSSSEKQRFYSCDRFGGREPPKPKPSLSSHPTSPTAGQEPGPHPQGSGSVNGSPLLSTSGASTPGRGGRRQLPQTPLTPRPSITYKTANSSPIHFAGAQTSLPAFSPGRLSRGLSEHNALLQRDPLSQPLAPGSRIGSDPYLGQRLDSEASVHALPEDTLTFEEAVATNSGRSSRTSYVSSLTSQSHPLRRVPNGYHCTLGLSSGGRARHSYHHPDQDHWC
T2 sequence (Q02410 whole entry): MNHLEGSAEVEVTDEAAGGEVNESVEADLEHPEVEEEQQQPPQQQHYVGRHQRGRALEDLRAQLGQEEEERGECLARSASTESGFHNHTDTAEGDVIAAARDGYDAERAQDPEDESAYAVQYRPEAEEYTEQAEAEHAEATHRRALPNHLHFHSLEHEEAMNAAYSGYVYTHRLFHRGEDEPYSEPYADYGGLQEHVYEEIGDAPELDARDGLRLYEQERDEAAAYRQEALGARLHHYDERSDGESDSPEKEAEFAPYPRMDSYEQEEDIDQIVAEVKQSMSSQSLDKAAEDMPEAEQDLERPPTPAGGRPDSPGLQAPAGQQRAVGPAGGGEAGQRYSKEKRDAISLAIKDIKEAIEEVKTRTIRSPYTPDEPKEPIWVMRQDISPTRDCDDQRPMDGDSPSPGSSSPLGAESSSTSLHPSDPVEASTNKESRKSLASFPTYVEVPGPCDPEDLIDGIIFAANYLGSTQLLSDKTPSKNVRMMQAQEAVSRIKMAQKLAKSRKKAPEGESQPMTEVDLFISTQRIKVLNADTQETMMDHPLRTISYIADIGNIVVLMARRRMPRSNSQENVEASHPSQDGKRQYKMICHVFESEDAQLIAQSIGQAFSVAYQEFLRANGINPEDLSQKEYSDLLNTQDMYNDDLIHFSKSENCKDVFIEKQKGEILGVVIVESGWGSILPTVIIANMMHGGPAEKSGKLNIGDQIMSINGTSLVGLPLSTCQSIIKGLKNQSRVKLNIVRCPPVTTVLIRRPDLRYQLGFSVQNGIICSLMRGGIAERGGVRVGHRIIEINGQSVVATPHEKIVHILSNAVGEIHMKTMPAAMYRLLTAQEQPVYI

[9] = biological target: T2, Voltage-gated N-type calcium channel alpha-1B subunit/Amyloid beta A4 precursor protein-binding family A member 1; test: disruptors of Mint-PDZ/N-type channel peptide interaction – biochemical, HTRF, set 2, SAR follow-up (AID 434980); type: functional
[10] = biological target: Eukaryotic translation initiation factor 4E (Mus musculus, UniProt P63073); test: eIF4E–eIF4G protein interaction inhibitors, dose response, biochemical, TR-FRET (AID 855); type: functional;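 further: potency for disrupting eIF4E binding to eIF4GI seen as loss of FRET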
Eukaryotic translation initiation factor 4E, sequence (P63073 whole entry): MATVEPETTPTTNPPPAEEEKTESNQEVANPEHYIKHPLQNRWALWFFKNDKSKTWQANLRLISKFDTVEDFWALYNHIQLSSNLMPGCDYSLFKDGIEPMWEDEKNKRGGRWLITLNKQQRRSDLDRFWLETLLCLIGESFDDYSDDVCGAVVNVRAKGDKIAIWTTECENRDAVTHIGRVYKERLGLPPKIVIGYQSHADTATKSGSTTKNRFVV

[11] = biological target: Potassium voltage-gated channel subfamily KQT member 2 (Rattus norvegicus, UniProt O88943); test: retigabine-insensitive KCNQ2 potentiators, concentration-response, dose response, cell-based, retigabine-insensitive compounds (AID 2654); type: functional
Coagulation factor XII = biological target: T3, Coagulation factor XII (Homo sapiens, UniProt P00748); test: FXIIa inhibitor potency, concentration-response, biochemical (AID 716); type: functional
T3 sequence (P00748 whole entry): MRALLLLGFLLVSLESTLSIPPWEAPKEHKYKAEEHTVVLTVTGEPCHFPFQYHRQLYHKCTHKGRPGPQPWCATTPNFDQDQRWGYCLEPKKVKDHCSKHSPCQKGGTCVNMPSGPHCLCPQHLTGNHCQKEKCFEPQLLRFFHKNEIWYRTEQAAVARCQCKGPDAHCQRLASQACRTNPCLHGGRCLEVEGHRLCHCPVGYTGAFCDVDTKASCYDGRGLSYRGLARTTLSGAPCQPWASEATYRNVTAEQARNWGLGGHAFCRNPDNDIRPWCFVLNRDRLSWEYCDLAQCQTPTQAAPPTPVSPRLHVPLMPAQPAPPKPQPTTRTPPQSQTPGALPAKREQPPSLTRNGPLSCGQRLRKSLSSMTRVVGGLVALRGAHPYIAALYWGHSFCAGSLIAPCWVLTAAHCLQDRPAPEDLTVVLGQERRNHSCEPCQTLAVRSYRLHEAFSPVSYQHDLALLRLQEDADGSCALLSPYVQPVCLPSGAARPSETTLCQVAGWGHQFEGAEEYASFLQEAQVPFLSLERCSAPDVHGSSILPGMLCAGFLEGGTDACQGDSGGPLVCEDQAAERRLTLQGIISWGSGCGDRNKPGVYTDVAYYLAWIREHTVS

[12] = inhibition of K1F phage lysis, E. coli UTI89, bacterial capsule biogenesis inhibitors, alamar blue (AID 488966); type: functional
[13] = Vero E6 cell cytotoxicity, dose response, cytotoxicity control for non-replicating M. tuberculosis project, secondary assay (AID 492998); type: functional, VeroE6; conditions: Vero C1008
[14] = HepG2 cell cytotoxicity, dose response, cytotoxicity control for non-replicating M. tuberculosis project (AID 489018); type: functional; conditions: Mycobacterium tuberculosis
[15] = THP-1 cell cytotoxicity, dose response, cytotoxicity control for non-replicating M. tuberculosis project (AID 489025); type: functional
cells = type: functional
[16] = biological target: NACHT, LRR and PYD domains-containing protein 1 (Homo sapiens, UniProt Q9C000); test: NALP1 inhibitors in yeast, dose response, luminescent (AID 488860); type: functional
Saccharomyces cerevisiae = test: NALP1 inhibitor project selectivity study, Caspase-1/ASC signal blockade IC50 in S. cerevisiae (AID 488863); type: functional, organism-based
[17] = biological target: NACHT, LRR and PYD domains-containing protein 3 (Homo sapiens, UniProt Q96P20); test: NALP3 inhibitors in yeast, dose response, luminescent (AID 488799); type: functional
[18] = biological target: Voltage-dependent T-type calcium channel subunit alpha-1H (Homo sapiens, UniProt O95180); test: Cav3.2 T-type channel inhibitors, cell-based, synthetic library set 1, calcium flux (AID 493022); type: functional
[19] = biological target: Melanin-concentrating hormone receptor 1 (Homo sapiens, UniProt Q99705); test: Late-stage fluorescence-based counterscreen for antagonists of the G-protein coupled receptor 7 (GPR7): cell-based dose response assay to identify antagonists of the melanin-concentrating hormone receptor 1 (MCHR1). [Related pubchem assays (depositor defined):AID1861, AID1880, AID1952, AID2148, AID2251, AID2257, AID485339]; type: functional;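 further: stimulated with 30 nM MCH peptide agonist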
[20] = biological target: T4, Neuropeptides B/W receptor type 1 (Homo sapiens, UniProt P48145); test: GPR7 antagonist potency, late-stage follow-up, cell-based, fluorescence, dose response (AID 463251); type: functional
T4 sequence (P48145 whole entry): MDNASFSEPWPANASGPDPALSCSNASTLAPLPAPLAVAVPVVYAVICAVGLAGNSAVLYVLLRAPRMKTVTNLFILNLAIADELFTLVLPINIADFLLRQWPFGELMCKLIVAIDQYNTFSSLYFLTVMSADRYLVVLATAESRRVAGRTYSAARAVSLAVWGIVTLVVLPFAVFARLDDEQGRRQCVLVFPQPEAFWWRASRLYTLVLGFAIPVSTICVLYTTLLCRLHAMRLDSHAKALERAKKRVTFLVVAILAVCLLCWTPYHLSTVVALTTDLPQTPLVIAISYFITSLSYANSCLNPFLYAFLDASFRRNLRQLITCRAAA

Trypanosoma cruzi = test: growth inhibition of intracellular Trypanosoma cruzi, dose response, cell-based, plate reader, dry powder, set 3 (AID 493197); type: functional
[21] = cytotoxicity in NIH/3T3 mouse fibroblasts, dose response, cytotoxicity control, cell-based, mouse embryonic fibroblasts, dry powder, set 2 (AID 493247); type: functional; conditions: Fibroblast
[22] = biological target: Female germline-specific tumor suppressor gld-1 (Caenorhabditis elegans, UniProt Q17339); test: inhibitors of GLD-1 binding to TGE RNA, dose response, biochemical, fluorescence polarization, C. elegans (AID 2802);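 further: fluorescence polarization of labeled TGE RNA bound by purified gld-1 protein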
Protein Rev = Protein Rev (Human immunodeficiency virus type 1 group M subtype B (isolate HXB2)(HIV-1), UniProt P04618); test: inhibitors of Rev binding to RRE RNA, dose response, biochemical, fluorescence polarization, HIV-1 (AID 434976); design: species or system Human immunodeficiency virus 1

Perilipin-1/ABHD5, sequence (Q8WTS1 whole entry, the tested form may be a part): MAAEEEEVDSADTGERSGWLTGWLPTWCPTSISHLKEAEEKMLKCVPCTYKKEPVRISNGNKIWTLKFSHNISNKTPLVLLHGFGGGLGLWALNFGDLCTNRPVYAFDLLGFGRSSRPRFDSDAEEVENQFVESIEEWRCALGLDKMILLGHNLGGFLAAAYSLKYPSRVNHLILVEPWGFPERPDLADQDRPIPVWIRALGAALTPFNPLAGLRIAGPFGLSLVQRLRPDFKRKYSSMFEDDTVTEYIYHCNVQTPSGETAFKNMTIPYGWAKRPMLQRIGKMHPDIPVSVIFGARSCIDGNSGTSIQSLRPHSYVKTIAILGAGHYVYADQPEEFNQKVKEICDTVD
Perilipin-1/ABHD5, sequence (O60240 whole entry, the tested form may be a part): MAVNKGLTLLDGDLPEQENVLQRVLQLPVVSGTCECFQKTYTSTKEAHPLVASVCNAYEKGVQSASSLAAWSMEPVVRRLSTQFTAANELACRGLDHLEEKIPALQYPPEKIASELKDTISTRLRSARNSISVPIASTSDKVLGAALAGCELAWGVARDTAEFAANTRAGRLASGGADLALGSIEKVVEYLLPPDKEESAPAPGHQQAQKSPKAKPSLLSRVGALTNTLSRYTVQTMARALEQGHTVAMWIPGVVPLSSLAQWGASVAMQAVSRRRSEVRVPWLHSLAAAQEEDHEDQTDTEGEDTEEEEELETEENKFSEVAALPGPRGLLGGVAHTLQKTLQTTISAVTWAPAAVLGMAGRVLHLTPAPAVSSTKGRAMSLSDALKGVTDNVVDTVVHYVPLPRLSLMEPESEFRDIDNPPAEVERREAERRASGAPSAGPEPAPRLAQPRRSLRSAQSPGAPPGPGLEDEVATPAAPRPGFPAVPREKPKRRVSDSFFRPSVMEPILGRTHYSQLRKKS

## CC(C)N1C(=O)/C(=C\c2nc(O)c3ccccc3n2)c2ccccc21
Perilipin-1/ABHD5
  IC50: 6.84 µM (active)
[1]
  AC50: 5.37 µM (active)
[2]
  IC50: 7.59 µM (active)

## O=C(NCc1cc([N+](=O)[O-])ccc1O)c1cccnc1Sc1ccccc1Cl
[3]
  CC50: > 100 µM (active)
[4]
  EC50: > 150 µM (inactive)
[5]
  EC50: > 180 µM (inactive)
[6]
  EC50: 0.848 µM (active)
[7]
  EC50: > 150 µM (inactive)

## CC(/C=C/c1ccco1)=NNC(=O)c1cccnc1
[8]
  IC50: 21.4 µM (active)
[9]
  IC50: 6.99 µM (active)

## COc1ccc(-n2c(Cc3cccn3C)nnc2SCC(=O)Nc2cccc(F)c2)cc1
[10]
  IC50: > 64 µM (inactive)

## S=C(Nc1cccnc1)Nc1cccc(Cl)c1
[11]
  EC50: 9.33 µM (active)

## CCCS(=O)(=O)N1CCN(c2ccccc2F)CC1
Coagulation factor XII
  IC50: > 50 µM (inactive)

## CC12CC3CC(C)(C1)CC(CN)(C3)C2
[12]
  IC50: > 300 µM (active)

## O=C(NNC(=O)c1ccccn1)c1cccc([N+](=O)[O-])c1
[13]
  CC50: 9.98 µM (active)
[14]
  CC50: > 20 µM (active)
[15]
  CC50: 26.7 µM (active)
cells
  IC50: 10.9 µM (active)

## Cc1ccc(NC(=O)CNc2ccc(OC(C)C)cc2)cc1
[16]
  IC50: 22.6 µM (active)
Saccharomyces cerevisiae
  IC50: 42.6 µM (active)

## COc1c(OC(C)=O)c(=O)n2c3ccccc3c3ccnc1c32
[17]
  IC50: 1.58 µM (active)

## CC(Oc1ccccc1)C(=O)Nc1nnc(-c2ccc(F)cc2)o1 (stereo not drawn)
[18]
  EC50: 10 µM (active)

## O=C(C1CCCCN1Cc1ccc(Cl)c(Cl)c1)N1CCN(c2ccc([N+](=O)[O-])cc2)CC1 (stereo not drawn)
[19]
  IC50: 4.6 µM (active)
[20]
  IC50: 2.3 µM (active)

## O=C(COc1ccc2ccccc2c1)N/N=C/c1ccc([N+](=O)[O-])o1
Trypanosoma cruzi
  AC50: 0.837 µM (active)
[21]
  AC50: 22.3 µM (active)

## C=CCc1cccc(/C=N/n2c(C)nnc2C)c1O
[22]
  IC50: 8.19 µM (active)
Protein Rev
  IC50: > 8.39 µM (active)

Source: ChEMBL document CHEMBL1201862, “PubChem BioAssay data set” (2004)
